Values joined by “and” are separate entries in the source; they are usually repeats but may differ in a detail not shown here. Equal values may be shown once. Inconclusive results and toxic doses are left out.
Tested on: P388 leukemia ip, CD2F1 mice, survival T/C
Experiment: NCI In Vivo Anticancer Drug Screen. Data for tumor model P388 Leukemia (intraperitoneal) in CD2F1 (CDF1) mice
Conditions: endpoint: median survival time, higher = longer survival
Procedure, shortened: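 Mice carrying the transplanted tumor received test compound or vehicle. Survival was recorded in each group, and the value is the treated-group measurement divided by that of the vehicle-treated control group.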

[1] = dose: 12.5 mg/kg/injection, schedule: Q01DX009 (ip), vehicle: saline with Tween-80
[2] = dose: 25.0 mg/kg/injection, schedule: Q01DX009 (ip), vehicle: saline with Tween-80
[3] = dose: 50.0 mg/kg/injection, schedule: Q01DX005 (ip), vehicle: saline with Tween-80
[4] = dose: 100.0 mg/kg/injection, schedule: Q01DX005 (ip), vehicle: saline with Tween-80
[5] = dose: 200.0 mg/kg/injection, schedule: Q01DX005 (ip), vehicle: saline with Tween-80
[6] = dose: 50.0 mg/kg/injection, schedule: Q01DX005 (ip), vehicle: Klucel (hydroxypropylcellulose) (HPC)
[7] = dose: 100.0 mg/kg/injection, schedule: Q01DX005 (ip), vehicle: Klucel (hydroxypropylcellulose) (HPC)
[8] = dose: 200.0 mg/kg/injection, schedule: Q01DX005 (ip), vehicle: Klucel (hydroxypropylcellulose) (HPC)
[9] = dose: 50.0 mg/kg/injection, schedule: Q01DX005 (ip), vehicle: saline
[10] = dose: 100.0 mg/kg/injection, schedule: Q01DX005 (ip), vehicle: saline
[11] = dose: 200.0 mg/kg/injection, schedule: Q01DX005 (ip), vehicle: saline
[12] = dose: 50.0 mg/kg/injection, schedule: Q04DX002 (ip), vehicle: saline with Tween-80
[13] = dose: 60.0 mg/kg/injection, schedule: Q01DX005 (ip), vehicle: saline with Tween-80
[14] = dose: 120.0 mg/kg/injection, schedule: Q01DX005 (ip), vehicle: saline with Tween-80
[15] = dose: 240.0 mg/kg/injection, schedule: Q01DX005 (ip), vehicle: saline with Tween-80
[16] = dose: 50.0 mg/kg/injection, schedule: Q01DX009 (ip), vehicle: saline
[17] = dose: 100.0 mg/kg/injection, schedule: Q01DX009 (ip), vehicle: saline
[18] = dose: 200.0 mg/kg/injection, schedule: Q01DX009 (ip), vehicle: saline
[19] = dose: 25.0 mg/kg/injection, schedule: Q01DX009 (ip), vehicle: Klucel (hydroxypropylcellulose) (HPC)
[20] = dose: 50.0 mg/kg/injection, schedule: Q01DX009 (ip), vehicle: Klucel (hydroxypropylcellulose) (HPC)
[21] = dose: 100.0 mg/kg/injection, schedule: Q01DX009 (ip), vehicle: Klucel (hydroxypropylcellulose) (HPC)
[22] = dose: 200.0 mg/kg/injection, schedule: Q01DX009 (ip), vehicle: Klucel (hydroxypropylcellulose) (HPC)
[23] = dose: 50.0 mg/kg/injection, schedule: Q01DX009 (ip), vehicle: saline with Tween-80
[24] = dose: 12.5 mg/kg/injection, schedule: Q01DX001 (ip), vehicle: Klucel (hydroxypropylcellulose) (HPC)
[25] = dose: 25.0 mg/kg/injection, schedule: Q01DX001 (ip), vehicle: Klucel (hydroxypropylcellulose) (HPC)
[26] = dose: 100.0 mg/kg/injection, schedule: Q01DX001 (ip), vehicle: saline with Tween-80
[27] = dose: 200.0 mg/kg/injection, schedule: Q01DX001 (ip), vehicle: saline with Tween-80
[28] = dose: 400.0 mg/kg/injection, schedule: Q01DX001 (ip), vehicle: saline with Tween-80
[29] = dose: 25.0 mg/kg/injection, schedule: Q01DX005 (ip), vehicle: Klucel (hydroxypropylcellulose) (HPC)

`CCOC(=O)C1CCc2ccc(OC)c(OC)c2C1` (stereo not given) was tested, and the T/C (dose: 12.5 mg/kg/injection, schedule: Q01DX009 (ip), vehicle: other) was 100 % of control, the T/C (dose: 25.0 mg/kg/injection, schedule: Q01DX009 (ip), vehicle: other) was 97 % of control and the T/C (dose: 50.0 mg/kg/injection, schedule: Q01DX009 (ip), vehicle: other) was 105 % of control. For the same compound, the T/C (dose: 100.0 mg/kg/injection, schedule: Q01DX009 (ip), vehicle: other) was 100 % of control and the T/C (dose: 200.0 mg/kg/injection, schedule: Q01DX009 (ip), vehicle: other) was 110 % of control.
With `Cc1cc(C)c(N)c(Br)c1` the T/C (dose: 6.25 mg/kg/injection, schedule: Q01DX009 (ip), vehicle: saline with Tween-80) was 118 % of control, the T/C [1] was 113 % of control and the T/C (dose: 12.5 mg/kg/injection, schedule: Q04DX003 (ip), vehicle: saline with Tween-80) was 100 % of control. The T/C [2] was 100 % of control, the T/C (dose: 25.0 mg/kg/injection, schedule: Q04DX003 (ip), vehicle: other) was 120 % of control and the T/C (dose: 25.0 mg/kg/injection, schedule: Q04DX003 (ip), vehicle: saline with Tween-80) was 100 % of control. For the same compound, the T/C (dose: 50.0 mg/kg/injection, schedule: Q04DX003 (ip), vehicle: other) was 120 % of control and the T/C (dose: 50.0 mg/kg/injection, schedule: Q04DX003 (ip), vehicle: saline with Tween-80) was 95 % of control.
For `Cc1ccc(S(=O)(=O)N/N=C/c2cc(I)cc(I)c2O)cc1`, the T/C [3] was 98 % of control, the T/C [4] was 100 % of control and the T/C [5] was 100 % of control.
In the case of `CC1(C)OC2(C)CCC1C1C2N1C(=O)C(c1ccccc1)c1ccccc1` (stereo not given), the T/C [6] is reported as 109 % of control, the T/C [7] is reported as 100 % of control and the T/C [8] is reported as 109 % of control.
With `CC(C)C(=O)CCC(=O)O` the T/C [9] was 106 % of control, the T/C [10] was 97 % of control and the T/C [11] was 98 % of control.
`CC(C)(C)c1cc(C(=O)O)c2c(c1)C(=O)OCS2` was tested, and the T/C (dose: 100.0 mg/kg/injection, schedule: Q04DX003 (ip), vehicle: Klucel (hydroxypropylcellulose) (HPC)) was 99 % of control, the T/C (dose: 200.0 mg/kg/injection, schedule: Q04DX003 (ip), vehicle: Klucel (hydroxypropylcellulose) (HPC)) was 91 % of control and the T/C (dose: 400.0 mg/kg/injection, schedule: Q04DX003 (ip), vehicle: Klucel (hydroxypropylcellulose) (HPC)) was 97 % of control.
For `CN=C(N)N/N=C(\C)c1ccc2ccc3ccccc3c2c1`, the T/C [12] was 105 % of control.
In the case of `CC(C)(C)c1cc(NC(=O)C(F)(F)F)c(Cl)c(C(C)(C)C)c1O`, the T/C [6] is reported as 109 % of control, the T/C [7] is reported as 100 % of control and the T/C [8] is reported as 108 % of control.
For `Cc1cc(C)c2c(=O)c3c(oc2c1)O[C@@](C)(CO)C[C@@H]3c1ccccc1`, the T/C [13] was 101 % of control, the T/C [14] was 98 % of control and the T/C [15] was 106 % of control.
In the case of `CN(C)S(=O)(=O)CC(O)C(Cl)(Cl)Cl` (stereo not given), the T/C [16] is reported as 100 % of control, the T/C [17] is reported as 98 % of control and the T/C [18] is reported as 98 % of control.
`C/C(=C/c1cc2c(cc1Br)OCO2)[N+](=O)[O-]` was tested, and the T/C (dose: 100.0 mg/kg/injection, schedule: Q04DX003 (ip), vehicle: saline with Tween-80) was 108 % of control and the T/C (dose: 200.0 mg/kg/injection, schedule: Q04DX003 (ip), vehicle: saline with Tween-80) was 118 % of control.
In the case of `COC(=O)c1ccc(-c2ccccc2)cc1`, the T/C [19] is reported as 89 % of control, the T/C [20] is reported as 89 % of control and the T/C [21] is reported as 90 % of control. For the same compound, the T/C [22] was 86 % of control.
`O=c1[nH]/c(=C/c2ccccc2)c(=O)[nH]/c1=C/C=C/c1ccccc1` was tested, and the T/C [19] was 107 % of control, the T/C [20] was 104 % of control and the T/C [21] was 102 % of control.
In the case of `FC(F)(F)c1ccc2c(c1)N=C(NNC1=Nc3cc(C(F)(F)F)ccc3SC1)CS2`, the T/C (dose: 15.0 mg/kg/injection, schedule: Q01DX005 (ip), vehicle: saline with Tween-80) is reported as 91 % of control and the T/C (dose: 30.0 mg/kg/injection, schedule: Q01DX005 (ip), vehicle: saline with Tween-80) is reported as 86 % of control.
For `Cc1cc(OC(=O)Nc2c(Cl)cccc2Cl)c(Cl)c(C)c1Cl`, the T/C [23] was 112 % of control, the T/C (dose: 100.0 mg/kg/injection, schedule: Q01DX009 (ip), vehicle: saline with Tween-80) was 109 % of control and the T/C (dose: 200.0 mg/kg/injection, schedule: Q01DX009 (ip), vehicle: saline with Tween-80) was 105 % of control.
In the case of `CC(C)=CCCC(C)CCC1NC(C(=O)O)CS1` (stereo not given), the T/C [16] is reported as 94 % of control, the T/C [17] is reported as 94 % of control and the T/C [18] is reported as 95 % of control.
In the case of `CC1(C)C[C@@]2(F)C(=O)NC(=O)N[C@@H]12`, the T/C [24] is reported as 103 % of control, the T/C [25] is reported as 106 % of control and the T/C (dose: 50.0 mg/kg/injection, schedule: Q01DX001 (ip), vehicle: Klucel (hydroxypropylcellulose) (HPC)) is reported as 99 % of control.
With `COCOc1cccc2c1C(O)CC2` (stereo not given) the T/C [13] was 100 % of control, the T/C [14] was 100 % of control and the T/C [15] was 98 % of control.
In the case of `Cc1ccc2nc3c4ccccc4c4ccccc4c3nc2c1C`, the T/C [3] is reported as 94 % of control, the T/C [4] is reported as 86 % of control and the T/C [5] is reported as 89 % of control.
With `CCC1(O)C(=O)OCc2c1cc1n(c2=O)Cc2ccccc2-1` (stereo not given) the T/C [26] was 96 % of control, the T/C [27] was 90 % of control and the T/C [28] was 92 % of control.
With `N#Cc1ccccc1NC(=O)Nc1ccc(Cc2ccc(NC(=O)Nc3ccccc3C#N)cc2)cc1` the T/C [13] was 97 % of control, the T/C [14] was 97 % of control and the T/C [15] was 93 % of control.
With `C/C(=N\N/C(N)=N/S(=O)(=O)c1ccc(C)cc1)c1ccc(C)cc1` the T/C [12] was 100 % of control, the T/C (dose: 100.0 mg/kg/injection, schedule: Q04DX002 (ip), vehicle: saline with Tween-80) was 97 % of control and the T/C (dose: 200.0 mg/kg/injection, schedule: Q04DX002 (ip), vehicle: saline with Tween-80) was 98 % of control.
`CC1CCCC2C(c3ccccc3)OCN12` (stereo not given) was tested, and the T/C [9] was 108 % of control, the T/C [10] was 111 % of control and the T/C [11] was 109 % of control.
In the case of `CCCCCCC[As](C)(=O)O`, the T/C [24] is reported as 104 % of control, the T/C [25] is reported as 111 % of control and the T/C (dose: 400.0 mg/kg/injection, schedule: Q01DX001 (ip), vehicle: Klucel (hydroxypropylcellulose) (HPC)) is reported as 96 % of control.
`CC(=Nc1ccccc1)Nc1ccccc1.[Cu+2]` was tested, and the T/C [1] was 109 % of control, the T/C [2] was 105 % of control and the T/C [23] was 105 % of control.
In the case of `O=C(O)CC1Sc2nc3c(n2C1(O)c1ccccc1)CCCC3` (stereo not given), the T/C [20] is reported as 109 % of control, the T/C [21] is reported as 100 % of control and the T/C [22] is reported as 98 % of control.
`O=C([O][Sn]([O]C(=O)c1ccccc1)([c]1ccccc1)[c]1ccccc1)c1ccccc1` was tested, and the T/C (dose: 3.12 mg/kg/injection, schedule: Q01DX005 (ip), vehicle: Klucel (hydroxypropylcellulose) (HPC)) was 111 % of control, the T/C (dose: 6.25 mg/kg/injection, schedule: Q01DX005 (ip), vehicle: Klucel (hydroxypropylcellulose) (HPC)) was 116 % of control and 123 % of control and the T/C (dose: 12.5 mg/kg/injection, schedule: Q01DX005 (ip), vehicle: Klucel (hydroxypropylcellulose) (HPC)) was 111 % of control and 123 % of control. The T/C [29] was 151 % of control.
`CCOc1nc(N)c(C(=O)c2sc(OCC)nc2N)s1` was tested, and the T/C [26] was 107 % of control, the T/C [27] was 99 % of control and the T/C [28] was 92 % of control.
In the case of `CN(C)C(=O)Sc1nnc(C(C)(C)C)o1`, the T/C [29] is reported as 100 % of control, the T/C [6] is reported as 106 % of control and the T/C [7] is reported as 106 % of control.
For `CCN(CC)CCCNC(=O)C(c1ccccc1)c1ccccc1`, the T/C (dose: 12.5 mg/kg/injection, schedule: Q01DX005 (ip), vehicle: saline) was 100 % of control, the T/C (dose: 25.0 mg/kg/injection, schedule: Q01DX005 (ip), vehicle: saline) was 115 % of control and the T/C [9] was 100 % of control and 92 % of control.

Reference: PubChem BioAssay AID330 (DTP/NCI, 2004)
